Consider 13 compounds from ChEMBL document CHEMBL1201862, “PubChem BioAssay data set” (2004).

Some test systems named below: TK-10; HOP-62; NCI-H226; K562; OVCAR-3; IGROV-1; RPMI-8226; M14; LOX IMVI; MOLT-4; SK-OV-3; ACHN; SK-MEL-2; CCRF-CEM; SNB-19; HL-60.
Test in all cases: inhibition of tumour cell growth, NCI panel, 48 h

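A five-concentration, 48-hour dose response in 96-well plates underlies each endpoint, interpolated linearly between surrounding concentrations. GI50 is the concentration that inhibits growth by half.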 Calls of active or inactive are those of the source. No stated cut-off is given here; in the data, active = GI50 up to about 1.1 µM and inactive = higher.

For `COc1ccc(CC2NCCc3c2[nH]c2ccccc32)cc1` (stereo unspecified), the GI50 with TK-10 is > 100 µM (inactive); with HOP-62, > 100 µM (inactive); with NCI-H226, > 100 µM (inactive); in the experiment with K562 it was 32.6 µM (inactive); in the experiment with OVCAR-3, 64.6 µM (inactive); with IGROV-1 it was 83 µM (inactive). Besides, the GI50 is 30.4 µM (inactive) in the experiment on RPMI-8226; 41.6 µM (inactive) with M14; 42 µM (inactive) in the experiment with LOX IMVI; 31.9 µM (inactive) with MOLT-4; > 100 µM (inactive) with SK-OV-3; 66.8 µM (inactive) in the experiment with ACHN. The GI50 is > 100 µM (inactive) in the experiment on SK-MEL-2, 46.2 µM (inactive) in the experiment with CCRF-CEM, > 100 µM (inactive) with SNB-19 and 22.4 µM (inactive) in the experiment with HL-60.
Regarding `FC(F)(F)c1nc2ccc3[nH]c4c(-c5ccccc5)nccc4c3c2[nH]1`, the GI50 with TK-10 was > 100 µM (inactive); with HOP-62, > 100 µM (inactive); with NCI-H226, > 100 µM (inactive); in the experiment with K562 it was > 56.9 µM (inactive); with OVCAR-3, > 100 µM (inactive); with IGROV-1 it was > 100 µM (inactive). For the same compound, the GI50 in the experiment on RPMI-8226 is > 42.9 µM (inactive); in the experiment with M14, > 100 µM (inactive); in the experiment with LOX IMVI, > 46.8 µM (inactive); in the experiment on MOLT-4 it was > 100 µM (inactive); with SK-OV-3, > 100 µM (inactive); in the experiment on ACHN, > 100 µM (inactive). For the same compound, the GI50 with SK-MEL-2 was > 100 µM (inactive); with CCRF-CEM it was > 45.7 µM (inactive); with SNB-19, > 100 µM (inactive); in the experiment on HL-60 it was 97.5 µM (inactive).
In the case of `CC1CCC2(OCCO2)[C@]2(C)CC(O)C(=O)C=C12` (stereo partly specified), the GI50 with TK-10, with NCI-H226, with K562, in the experiment on OVCAR-3, with IGROV-1 and with RPMI-8226 was > 100 µM (inactive) each time. The GI50 with M14, in the experiment with MOLT-4, with SK-OV-3, in the experiment on ACHN, in the experiment on SK-MEL-2 and in the experiment with CCRF-CEM was > 100 µM (inactive) in each case. Also, the GI50 with SNB-19 and with HL-60 was > 100 µM (inactive) in each case.
On to `CCOC(=O)Nc1ccc(S(=O)(=O)I)cc1.CCOC(=O)Nc1ccc(S(=O)(=O)I)cc1.CN(C=O)C1=C(N(C)C=O)C(N(C)C=O)=C(N(C)C=O)C(=O)C1=O`, for which the GI50 in the experiment with TK-10, in the experiment on HOP-62, in the experiment with K562, in the experiment with IGROV-1, in the experiment with M14 and in the experiment with LOX IMVI was > 100 µM (inactive) each time. For the same compound, the GI50 in the experiment on MOLT-4, in the experiment on SK-OV-3, in the experiment with ACHN, with SK-MEL-2, in the experiment on CCRF-CEM and with SNB-19 was > 100 µM (inactive) in each case. Also, the GI50 in the experiment with HL-60 is > 100 µM (inactive).
As to `CC(C)N(C(=O)C12C3C4C5C3C1(C(=O)O)C5C42)C(C)C` (stereo unspecified), the GI50 in the experiment on TK-10, with HOP-62, with K562, in the experiment on OVCAR-3, with IGROV-1 and in the experiment on RPMI-8226 was > 100 µM (inactive) in each case. Besides, the GI50 in the experiment on M14, in the experiment on LOX IMVI, in the experiment with MOLT-4, in the experiment on SK-OV-3, in the experiment with ACHN and in the experiment on SK-MEL-2 was > 100 µM (inactive) in each case. In addition, the GI50 with CCRF-CEM, with SNB-19 and in the experiment with HL-60 was > 100 µM (inactive) in each case.
Regarding `CC(=O)OC12CCCCC1C1(CCCC1)NC2=O` (stereo unspecified), the GI50 with TK-10, in the experiment with HOP-62, with NCI-H226, with K562, in the experiment on OVCAR-3 and in the experiment with IGROV-1 was > 100 µM (inactive) in each case. The GI50 with RPMI-8226, in the experiment with M14, with LOX IMVI, with MOLT-4, in the experiment with SK-OV-3 and with ACHN was > 100 µM (inactive) throughout. Moreover, the GI50 in the experiment on CCRF-CEM, in the experiment with SNB-19 and in the experiment with HL-60 was > 100 µM (inactive) throughout.
In the case of `COc1cccc(N2C(=O)[C@H]3[C@H]4CC(C(C)(C)C)CC[C@H]4c4c([nH]c5ccccc45)[C@H]3C2=O)c1` (stereo partly specified), the GI50 in the experiment with TK-10 was 15.2 µM (inactive); in the experiment with HOP-62 it was 17.7 µM (inactive); in the experiment on NCI-H226, 22.1 µM (inactive); in the experiment on K562, 14 µM (inactive); in the experiment with OVCAR-3 it was 15.7 µM (inactive); in the experiment on IGROV-1, 17.1 µM (inactive). In addition, the GI50 in the experiment with RPMI-8226 was 15.4 µM (inactive); in the experiment with M14 it was 15.1 µM (inactive); in the experiment with LOX IMVI, 16.5 µM (inactive); in the experiment on MOLT-4 it was 11.9 µM (inactive); in the experiment with SK-OV-3, 20.8 µM (inactive); with SK-MEL-2, 20.3 µM (inactive). Also, the GI50 in the experiment on CCRF-CEM is 13.7 µM (inactive); with SNB-19, 18.9 µM (inactive); in the experiment on HL-60, 28 µM (inactive).
On to `CC(=O)C1C(=O)C(=O)N(CCN2C(=O)C(=O)C(C(C)=O)C2=O)C1=O` (stereo unspecified), for which the GI50 with TK-10, with HOP-62, in the experiment with NCI-H226, in the experiment on K562, with OVCAR-3 and with IGROV-1 was > 100 µM (inactive) throughout. Further, the GI50 with RPMI-8226, with M14, in the experiment on LOX IMVI, in the experiment on SK-OV-3, in the experiment on ACHN and in the experiment on SK-MEL-2 was > 100 µM (inactive) throughout. Further, the GI50 in the experiment on SNB-19 was > 100 µM (inactive).
For the compound `O=C1[C@H]2ON(c3ccccc3)C(c3ccccc3)[C@H]2C(=O)N1c1ccc(Cc2ccc(N3C(=O)[C@@H]4ON(c5ccccc5)C(c5ccccc5)[C@@H]4C3=O)cc2)cc1` (stereo partly specified), the GI50 in the experiment on HOP-62, in the experiment with NCI-H226, in the experiment with K562, in the experiment with OVCAR-3, in the experiment with IGROV-1 and with RPMI-8226 was > 100 µM (inactive) in each case. Also, the GI50 in the experiment with M14, in the experiment on LOX IMVI, with MOLT-4, in the experiment on SK-OV-3, in the experiment with ACHN and in the experiment with SK-MEL-2 was > 100 µM (inactive) throughout. Further, the GI50 with CCRF-CEM and in the experiment with HL-60 was > 100 µM (inactive) each time.
As for `CCN(CC)CCC(=O)Nc1ccc2c(c1)C(=O)c1ccc(NC(=O)CCN(CC)CC)cc1C2=O`, the GI50 was 5.01 µM (inactive) in the experiment on TK-10; 5.37 µM (inactive) in the experiment on HOP-62; 0.308 µM (active) in the experiment on NCI-H226; 3.29 µM (inactive) in the experiment with K562; 4.06 µM (inactive) in the experiment on IGROV-1; 4.17 µM (inactive) in the experiment on RPMI-8226. In addition, the GI50 in the experiment with M14 was 13.8 µM (inactive); in the experiment on LOX IMVI, 2.19 µM (inactive); in the experiment with MOLT-4, 2.07 µM (inactive); in the experiment with SK-OV-3, 9.73 µM (inactive); in the experiment on ACHN, 4.07 µM (inactive); in the experiment with SK-MEL-2 it was 4.79 µM (inactive). For the same compound, the results for the GI50 in the experiment with CCRF-CEM, with SNB-19 and in the experiment on HL-60 were 3.55 µM (inactive), 5.48 µM (inactive) and 4.23 µM (inactive), respectively.
For the compound `O=C(O/N=C1/CCCC/C1=C\c1ccccc1)c1ccc(Cl)cc1`, the GI50 in the experiment with TK-10, in the experiment with HOP-62, in the experiment on NCI-H226, with K562, with OVCAR-3 and in the experiment on IGROV-1 was > 100 µM (inactive) in each case. The GI50 in the experiment with RPMI-8226 is > 100 µM (inactive); in the experiment with M14, > 100 µM (inactive); with LOX IMVI, 57.8 µM (inactive); in the experiment on SK-OV-3 it was > 100 µM (inactive); in the experiment with ACHN, > 100 µM (inactive); with SK-MEL-2 it was > 100 µM (inactive). Also, the GI50 with CCRF-CEM was > 100 µM (inactive); with SNB-19 it was > 100 µM (inactive); in the experiment with HL-60, 24.7 µM (inactive).
With `c1cnc2nc3n(c2c1)CSC3`, the GI50 with TK-10, with HOP-62, in the experiment with NCI-H226, in the experiment on K562, with OVCAR-3 and in the experiment on IGROV-1 was > 100 µM (inactive) in each case. For the same compound, the GI50 with RPMI-8226, in the experiment with M14, in the experiment on LOX IMVI, in the experiment on MOLT-4, in the experiment with SK-OV-3 and in the experiment on ACHN was > 100 µM (inactive) in each case. For the same compound, the GI50 in the experiment on SK-MEL-2, in the experiment with CCRF-CEM and with HL-60 was > 100 µM (inactive) in each case.
With `O=S(=O)(N/N=C/c1ccc(Cl)c(Cl)c1)c1ccccc1`, the GI50 in the experiment on TK-10 was 41.7 µM (inactive); in the experiment with HOP-62, 35.7 µM (inactive); with NCI-H226, 58.5 µM (inactive); in the experiment on K562, 33.5 µM (inactive); in the experiment on OVCAR-3, 24.5 µM (inactive); in the experiment on IGROV-1 it was 33.3 µM (inactive). Moreover, the GI50 in the experiment with RPMI-8226 was 47 µM (inactive); in the experiment with M14, 60.3 µM (inactive); with LOX IMVI, 43.9 µM (inactive); in the experiment with MOLT-4 it was 28.1 µM (inactive); with SK-OV-3, 39.7 µM (inactive); in the experiment on ACHN, 43.1 µM (inactive). The results for the GI50 in the experiment with SK-MEL-2, in the experiment on CCRF-CEM and in the experiment with HL-60 were 34.2 µM (inactive), 48.1 µM (inactive) and 26.6 µM (inactive), respectively.
